In ChEMBL document CHEMBL1135474, “Synthesis and antitumor activity of 1,5,6-substituted E-3-(2-chloro-3-indolylmethylene)-1,3-dihydroindol-2-ones” (J Med Chem, 2002):

Legend:
Format in all cases: functional
[1] = system: Panel CNS (Carcinoma cell lines); assay: Inhibition of proliferation in NCI human CNS tumor cell lines
[2] = system: Panel CNS (Carcinoma cell lines); assay: Cytotoxic effect on human CNS tumor cell lines
[3] = system: Panel CNS (Carcinoma cell lines); assay: Cytostatic effect on human CNS tumor cell lines
[4] = system: Panel colon (Carcinoma cell lines); assay: Cytostatic effect on human colon tumor cell lines
[5] = system: Panel leukemia (Carcinoma cell lines); assay: Inhibition of proliferation in NCI human leukemia tumor cell lines
MCF7 = assay: Cytotoxic effect on human MCF-7 breast cancer cell line as percentage growth at 10e-4 M
NCI-H460 = assay: Cytotoxic effect on human NCI-H460 lung cancer cell line as percentage growth after inoculation at 10e-4 M
NSCLC [6] = assay: Cytostatic effect on human non-small cell lung carcinoma tumor cell lines
NSCLC [7] = assay: Inhibition of proliferation in NCI human non-small cell lung tumor cell lines
[8] = system: Panel prostate (Carcinoma cell lines); assay: Cytotoxic effect on human prostate tumor cell lines
SF-268 = assay: Cytotoxic effect on human SF-268 glioma cancer cell line as percentage growth after inoculation at 10e-4 M
[9] = system: Panel breast (Carcinoma cell lines); assay: Inhibition of proliferation in NCI human breast tumor cell lines
[10] = system: Panel breast (Carcinoma cell lines); assay: Cytotoxic effect on human breast tumor cell lines
[11] = system: Panel breast (Carcinoma cell lines); assay: Cytostatic effect on human breast tumor cell lines
[12] = system: Panel leukemia (Carcinoma cell lines); assay: Cytotoxic effect on human leukemia tumor cell lines
[13] = system: Panel leukemia (Carcinoma cell lines); assay: Cytostatic effect on human leukemia tumor cell lines
[14] = system: Panel colon (Carcinoma cell lines); assay: Inhibition of proliferation in NCI human colon tumor cell lines
[15] = system: Panel colon (Carcinoma cell lines); assay: Cytotoxic effect on human colon tumor cell lines
[16] = system: Panel ovarian (Carcinoma cell lines); assay: Inhibition of proliferation in NCI human ovarian tumor cell lines
[17] = system: Panel ovarian (Carcinoma cell lines); assay: Cytotoxic effect on human ovarian tumor cell lines
[18] = system: Panel ovarian (Carcinoma cell lines); assay: Cytostatic effect on human ovarian tumor cell lines
[19] = system: Panel melanoma (Carcinoma cell lines); assay: Inhibition of proliferation in NCI human melanoma tumor cell lines
[20] = system: Panel melanoma (Carcinoma cell lines); assay: Cytotoxic effect on human melanoma tumor cell lines
[21] = system: Panel melanoma (Carcinoma cell lines); assay: Cytostatic effect on human melanoma tumor cell lines
[22] = system: Panel prostate (Carcinoma cell lines); assay: Inhibition of proliferation in NCI human prostate tumor cell lines
[23] = system: Panel prostate (Carcinoma cell lines); assay: Cytostatic effect on human prostate tumor cell lines
[24] = Cytostatic effect on 60 human tumor cell line panel, MG-MID represents mean value
[25] = Inhibition of proliferation in NCI 60 human tumor cell line panel, MG-MID represents mean value
[26] = Cytotoxic effect on 60 human tumor cell line panel, MG-MID represents mean value
[27] = system: Panel renal (Carcinoma cell lines); assay: Inhibition of proliferation in NCI human renal tumor cell lines
[28] = system: Panel renal (Carcinoma cell lines); assay: Cytotoxic effect on human renal tumor cell lines
[29] = system: Panel renal (Carcinoma cell lines); assay: Cytostatic effect on human renal tumor cell lines

COc1cc2c(cc1C)NC(=O)/C2=C/c1c(Cl)[nH]c2cc(C)c(OC)cc12 gave a GI50 [1] of 631 nM, an LC50 [2] of -4.6 and a logTGI [3] of -5.3 log M. For the same molecule, the logTGI [4] was -4.7 log M, the GI50 [5] was 501 nM and the Growth (MCF7) was -51%. For the same molecule, the Growth (NCI-H460) was -63%, the logTGI (NSCLC [6]) was -4.8 log M and the GI50 (NSCLC [7]) was 3160 nM. It also gave an LC50 [8] of -4.4, a Growth (SF-268) of -67% and a GI50 [9] of 2510 nM. For the same molecule, the LC50 [10] was -4.1, the logTGI [11] was -4.7 log M and the LC50 [12] was -4.2. The logTGI [13] was -4.8 log M, the GI50 [14] was 3980 nM and the LC50 [15] was -4.2. The GI50 [16] was 2000 nM, the LC50 [17] was -4.4 and the TGI [18] was -4.9 log10 M. It also gave a GI50 [19] of 3160 nM, an LC50 [20] of -4.3 and a TGI [21] of -4.8 log10 M. It also gave a GI50 [22] of 1260 nM, a logTGI [23] of -4.9 log M and a logTGI [24] of -4.8 log M. For the same molecule, the GI50 [25] was 2000 nM, the LC50 [26] was -4.3 and the GI50 [27] was 2510 nM. The LC50 [28] was -4.3 and the logTGI [29] was -4.8 log M.
